Reference: article PMC11233931, “Remodeling tumor‐associated macrophage for anti‐cancer effects by rational design of irreversible inhibition of mitogen‐activated protein kinase‐activated protein kinase 2” (MedComm, 2024)

Columns and labels:
Experiment in all cases: Eurofins kinase selectivity profile against 380 other human recombinant kinases (Table S2)
Format in all cases: biochemical
[1] = biological target: T1, 380 human recombinant protein kinases (Homo sapiens, UniProt O95747); details: OSR1(h), read-out: Inhibition rate
T1 construct: purchased Eurofins (Celle Lévescault)
Experimental: (§1) Subsequently, to ascertain whether the high potency of compound 11 was specific for MK2, an additional 380 human recombinant protein kinases were screened.
(§2) To assess the impact of various compounds on MK2 kinase activity, we utilized the ADP‐Glo Assay Kit (Promega) following the manufacturer's instructions. Luminescence measurements were taken using a SpectraMax Paradigm reader. The inhibition percentage was calculated using the following formula: ((specific signalDMSO control − specific signal inhibitor)/(specific signalDMSO control)) × 100%. The IC50 values were determined employing dose–response curve fitting via Prism (Graph Pad). Additionally, Eurofins company (Celle Lévescault) conducted the analysis on compound 11’s inhibitory activity against 380 other human recombinant kinases at various concentrations.

[2] = biological target: T2, 380 human recombinant protein kinases (Homo sapiens, UniProt P35916); details: Flt4(h), read-out: Inhibition rate
T2 construct: purchased Eurofins (Celle Lévescault)
Experimental: as §1, §2

[3] = biological target: T3, 380 human recombinant protein kinases (Homo sapiens, UniProt P37023); details: ALK1(h), read-out: Inhibition rate
T3 construct: purchased Eurofins (Celle Lévescault)
Experimental: as §1, §2

[4] = biological target: T4, 380 human recombinant protein kinases (Homo sapiens, UniProt Q00534); details: CDK6/cyclinD3(h), read-out: Inhibition rate
T4 construct: purchased Eurofins (Celle Lévescault)
Experimental: as §1, §2

[5] = biological target: T5, 380 human recombinant protein kinases (Homo sapiens, UniProt Q13188); details: MST2(h), read-out: Inhibition rate
T5 construct: purchased Eurofins (Celle Lévescault)
T5 sequence (Q13188 1-491): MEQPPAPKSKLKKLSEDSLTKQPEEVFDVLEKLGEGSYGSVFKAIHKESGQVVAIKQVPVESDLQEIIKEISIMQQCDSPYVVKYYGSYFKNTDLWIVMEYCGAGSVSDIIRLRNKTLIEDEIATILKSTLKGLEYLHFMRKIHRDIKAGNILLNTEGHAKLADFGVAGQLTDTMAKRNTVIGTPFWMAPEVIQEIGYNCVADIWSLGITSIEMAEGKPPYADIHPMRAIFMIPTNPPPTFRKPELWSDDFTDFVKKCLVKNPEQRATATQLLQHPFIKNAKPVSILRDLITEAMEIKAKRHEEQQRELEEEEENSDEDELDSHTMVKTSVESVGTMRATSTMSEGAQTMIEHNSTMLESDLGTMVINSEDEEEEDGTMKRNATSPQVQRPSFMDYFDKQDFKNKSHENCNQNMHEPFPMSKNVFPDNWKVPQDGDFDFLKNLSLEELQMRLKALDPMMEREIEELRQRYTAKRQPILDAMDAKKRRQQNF
Experimental: as §1, §2

[6] = biological target: T6, 380 human recombinant protein kinases (Homo sapiens, UniProt Q15835); details: GRK1(h), read-out: Inhibition rate
T6 construct: purchased Eurofins (Celle Lévescault)
T6 sequence (Q15835 1-563): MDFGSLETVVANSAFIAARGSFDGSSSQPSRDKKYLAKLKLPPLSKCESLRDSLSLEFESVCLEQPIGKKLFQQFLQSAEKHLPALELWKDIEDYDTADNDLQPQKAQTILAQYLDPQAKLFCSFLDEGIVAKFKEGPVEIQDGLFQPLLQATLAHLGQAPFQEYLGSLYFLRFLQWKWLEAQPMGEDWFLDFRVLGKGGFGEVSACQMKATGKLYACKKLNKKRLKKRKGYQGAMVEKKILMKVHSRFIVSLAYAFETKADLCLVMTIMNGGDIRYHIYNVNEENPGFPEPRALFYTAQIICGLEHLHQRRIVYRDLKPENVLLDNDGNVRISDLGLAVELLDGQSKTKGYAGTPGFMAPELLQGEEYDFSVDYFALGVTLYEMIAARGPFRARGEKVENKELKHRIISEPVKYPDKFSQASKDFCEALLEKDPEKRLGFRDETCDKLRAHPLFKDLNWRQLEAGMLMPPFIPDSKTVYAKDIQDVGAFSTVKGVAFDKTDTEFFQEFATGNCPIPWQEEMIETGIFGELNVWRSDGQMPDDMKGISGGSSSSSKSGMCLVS
Experimental: as §1, §2

[7] = biological target: T7, 380 human recombinant protein kinases (Homo sapiens, UniProt Q96PN8); details: TSSK3(h), read-out: Inhibition rate (%)
T7 construct: purchased Eurofins (Celle Lévescault)
T7 sequence (Q96PN8 1-268): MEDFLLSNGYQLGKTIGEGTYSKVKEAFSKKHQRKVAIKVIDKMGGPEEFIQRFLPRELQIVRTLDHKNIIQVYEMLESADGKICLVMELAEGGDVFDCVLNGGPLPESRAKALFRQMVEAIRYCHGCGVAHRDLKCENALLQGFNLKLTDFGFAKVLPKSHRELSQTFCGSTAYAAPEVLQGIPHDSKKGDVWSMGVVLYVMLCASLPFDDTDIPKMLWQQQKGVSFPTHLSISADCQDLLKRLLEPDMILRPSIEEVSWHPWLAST
Experimental: as §1, §2

[8] = biological target: T8, 380 human recombinant protein kinases (Homo sapiens, UniProt Q9BYP7); details: WNK3(h), read-out: Inhibition rate (%)
T8 construct: purchased Eurofins (Celle Lévescault)
Experimental: as §1, §2

[9] = biological target: T9, 380 human recombinant protein kinases (Homo sapiens, UniProt Q9Y6M4); details: CK1γ3(h), read-out: Inhibition rate
T9 construct: purchased Eurofins (Celle Lévescault)
Experimental: as §1, §2

T9 sequence (Q9Y6M4 whole entry): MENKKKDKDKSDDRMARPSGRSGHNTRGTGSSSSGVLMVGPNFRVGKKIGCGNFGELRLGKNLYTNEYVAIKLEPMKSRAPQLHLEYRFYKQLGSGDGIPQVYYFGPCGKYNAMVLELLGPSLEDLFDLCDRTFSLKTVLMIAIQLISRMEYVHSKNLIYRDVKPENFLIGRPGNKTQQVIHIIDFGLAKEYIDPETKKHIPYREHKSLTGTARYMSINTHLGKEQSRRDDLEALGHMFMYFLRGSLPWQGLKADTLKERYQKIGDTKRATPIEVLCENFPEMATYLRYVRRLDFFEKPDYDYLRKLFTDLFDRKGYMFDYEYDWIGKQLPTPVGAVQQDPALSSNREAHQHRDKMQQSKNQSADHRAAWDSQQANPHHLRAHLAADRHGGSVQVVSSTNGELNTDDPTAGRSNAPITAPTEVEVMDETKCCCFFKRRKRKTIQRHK
T8 sequence (Q9BYP7 whole entry): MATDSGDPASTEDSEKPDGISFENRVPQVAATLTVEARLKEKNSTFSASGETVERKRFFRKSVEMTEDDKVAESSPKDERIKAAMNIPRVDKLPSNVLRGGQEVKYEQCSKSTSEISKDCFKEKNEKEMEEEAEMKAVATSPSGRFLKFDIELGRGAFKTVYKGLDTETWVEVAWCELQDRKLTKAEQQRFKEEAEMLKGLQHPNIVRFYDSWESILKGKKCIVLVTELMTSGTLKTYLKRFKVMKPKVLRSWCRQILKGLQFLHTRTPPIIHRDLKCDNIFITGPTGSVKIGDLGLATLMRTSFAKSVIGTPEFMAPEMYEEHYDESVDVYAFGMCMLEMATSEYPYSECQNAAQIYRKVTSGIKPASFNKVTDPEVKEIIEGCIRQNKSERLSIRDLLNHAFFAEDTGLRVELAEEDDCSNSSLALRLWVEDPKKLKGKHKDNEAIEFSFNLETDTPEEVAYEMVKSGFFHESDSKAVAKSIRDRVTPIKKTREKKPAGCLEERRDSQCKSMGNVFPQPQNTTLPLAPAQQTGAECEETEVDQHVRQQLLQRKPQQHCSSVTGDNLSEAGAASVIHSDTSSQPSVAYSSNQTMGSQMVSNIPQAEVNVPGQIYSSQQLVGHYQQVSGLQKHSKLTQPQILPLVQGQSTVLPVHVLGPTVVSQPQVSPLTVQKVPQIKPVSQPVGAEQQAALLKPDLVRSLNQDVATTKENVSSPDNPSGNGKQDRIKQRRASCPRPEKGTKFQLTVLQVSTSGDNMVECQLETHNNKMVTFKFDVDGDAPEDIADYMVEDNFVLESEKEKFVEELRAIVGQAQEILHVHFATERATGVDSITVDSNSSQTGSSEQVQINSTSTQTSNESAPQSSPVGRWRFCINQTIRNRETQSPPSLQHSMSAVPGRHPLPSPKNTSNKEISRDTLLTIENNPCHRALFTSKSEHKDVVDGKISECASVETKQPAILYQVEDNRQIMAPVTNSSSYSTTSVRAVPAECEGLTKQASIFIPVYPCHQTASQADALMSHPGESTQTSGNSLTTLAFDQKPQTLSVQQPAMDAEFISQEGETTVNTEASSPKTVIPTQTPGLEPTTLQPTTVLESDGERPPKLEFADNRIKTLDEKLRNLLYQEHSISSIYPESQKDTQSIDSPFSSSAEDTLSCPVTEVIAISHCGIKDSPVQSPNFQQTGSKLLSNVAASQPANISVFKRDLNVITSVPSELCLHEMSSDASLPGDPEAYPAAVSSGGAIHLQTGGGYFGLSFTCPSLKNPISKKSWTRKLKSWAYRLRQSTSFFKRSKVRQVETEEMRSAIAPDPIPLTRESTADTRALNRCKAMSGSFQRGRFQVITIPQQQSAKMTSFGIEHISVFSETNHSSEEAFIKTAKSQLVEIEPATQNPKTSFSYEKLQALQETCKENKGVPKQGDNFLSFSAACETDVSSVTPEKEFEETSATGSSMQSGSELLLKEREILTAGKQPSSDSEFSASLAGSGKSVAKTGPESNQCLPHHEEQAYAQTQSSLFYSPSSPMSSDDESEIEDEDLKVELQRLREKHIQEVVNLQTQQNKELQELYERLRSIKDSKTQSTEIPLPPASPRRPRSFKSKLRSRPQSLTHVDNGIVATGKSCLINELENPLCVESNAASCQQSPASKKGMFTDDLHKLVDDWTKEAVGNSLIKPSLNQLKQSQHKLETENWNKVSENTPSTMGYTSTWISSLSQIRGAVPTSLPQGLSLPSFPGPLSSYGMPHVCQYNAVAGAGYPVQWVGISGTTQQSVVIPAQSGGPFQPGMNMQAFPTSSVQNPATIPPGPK
T4 sequence (Q00534 whole entry): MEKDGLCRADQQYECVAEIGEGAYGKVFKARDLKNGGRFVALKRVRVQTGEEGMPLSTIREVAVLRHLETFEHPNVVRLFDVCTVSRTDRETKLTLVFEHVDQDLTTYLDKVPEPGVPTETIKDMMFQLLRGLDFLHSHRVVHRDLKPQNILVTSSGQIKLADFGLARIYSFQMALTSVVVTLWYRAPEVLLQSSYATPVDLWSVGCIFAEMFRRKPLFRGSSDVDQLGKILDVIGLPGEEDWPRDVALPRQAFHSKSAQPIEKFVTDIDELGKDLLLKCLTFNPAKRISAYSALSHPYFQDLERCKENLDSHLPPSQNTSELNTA
T3 sequence (P37023 22-503): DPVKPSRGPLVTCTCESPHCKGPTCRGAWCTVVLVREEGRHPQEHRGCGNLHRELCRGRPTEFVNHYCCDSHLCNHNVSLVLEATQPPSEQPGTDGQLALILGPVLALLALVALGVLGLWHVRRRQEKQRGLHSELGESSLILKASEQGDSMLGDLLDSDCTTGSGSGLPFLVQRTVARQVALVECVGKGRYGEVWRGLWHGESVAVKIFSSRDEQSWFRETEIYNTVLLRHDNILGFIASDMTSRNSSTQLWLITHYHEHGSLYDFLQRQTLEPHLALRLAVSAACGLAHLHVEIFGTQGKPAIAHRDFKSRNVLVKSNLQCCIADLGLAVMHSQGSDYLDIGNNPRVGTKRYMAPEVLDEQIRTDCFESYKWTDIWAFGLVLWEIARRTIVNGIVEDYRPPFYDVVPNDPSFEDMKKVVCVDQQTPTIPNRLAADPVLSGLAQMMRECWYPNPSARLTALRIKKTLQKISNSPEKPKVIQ
T1 sequence (O95747 whole entry): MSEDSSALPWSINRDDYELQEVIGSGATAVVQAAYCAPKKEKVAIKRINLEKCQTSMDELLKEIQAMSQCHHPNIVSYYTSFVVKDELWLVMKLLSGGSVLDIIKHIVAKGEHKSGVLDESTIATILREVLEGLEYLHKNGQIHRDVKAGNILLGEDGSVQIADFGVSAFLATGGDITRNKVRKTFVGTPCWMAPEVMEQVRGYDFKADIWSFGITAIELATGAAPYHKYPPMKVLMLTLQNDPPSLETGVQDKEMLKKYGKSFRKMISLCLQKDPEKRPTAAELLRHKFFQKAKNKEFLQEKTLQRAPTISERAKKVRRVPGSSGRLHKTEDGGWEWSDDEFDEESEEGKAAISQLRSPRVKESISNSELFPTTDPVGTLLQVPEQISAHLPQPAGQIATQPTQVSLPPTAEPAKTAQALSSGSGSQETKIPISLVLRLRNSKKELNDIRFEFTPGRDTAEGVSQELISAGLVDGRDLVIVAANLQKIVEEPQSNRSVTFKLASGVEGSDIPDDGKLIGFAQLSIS
T2 sequence (P35916 25-1363): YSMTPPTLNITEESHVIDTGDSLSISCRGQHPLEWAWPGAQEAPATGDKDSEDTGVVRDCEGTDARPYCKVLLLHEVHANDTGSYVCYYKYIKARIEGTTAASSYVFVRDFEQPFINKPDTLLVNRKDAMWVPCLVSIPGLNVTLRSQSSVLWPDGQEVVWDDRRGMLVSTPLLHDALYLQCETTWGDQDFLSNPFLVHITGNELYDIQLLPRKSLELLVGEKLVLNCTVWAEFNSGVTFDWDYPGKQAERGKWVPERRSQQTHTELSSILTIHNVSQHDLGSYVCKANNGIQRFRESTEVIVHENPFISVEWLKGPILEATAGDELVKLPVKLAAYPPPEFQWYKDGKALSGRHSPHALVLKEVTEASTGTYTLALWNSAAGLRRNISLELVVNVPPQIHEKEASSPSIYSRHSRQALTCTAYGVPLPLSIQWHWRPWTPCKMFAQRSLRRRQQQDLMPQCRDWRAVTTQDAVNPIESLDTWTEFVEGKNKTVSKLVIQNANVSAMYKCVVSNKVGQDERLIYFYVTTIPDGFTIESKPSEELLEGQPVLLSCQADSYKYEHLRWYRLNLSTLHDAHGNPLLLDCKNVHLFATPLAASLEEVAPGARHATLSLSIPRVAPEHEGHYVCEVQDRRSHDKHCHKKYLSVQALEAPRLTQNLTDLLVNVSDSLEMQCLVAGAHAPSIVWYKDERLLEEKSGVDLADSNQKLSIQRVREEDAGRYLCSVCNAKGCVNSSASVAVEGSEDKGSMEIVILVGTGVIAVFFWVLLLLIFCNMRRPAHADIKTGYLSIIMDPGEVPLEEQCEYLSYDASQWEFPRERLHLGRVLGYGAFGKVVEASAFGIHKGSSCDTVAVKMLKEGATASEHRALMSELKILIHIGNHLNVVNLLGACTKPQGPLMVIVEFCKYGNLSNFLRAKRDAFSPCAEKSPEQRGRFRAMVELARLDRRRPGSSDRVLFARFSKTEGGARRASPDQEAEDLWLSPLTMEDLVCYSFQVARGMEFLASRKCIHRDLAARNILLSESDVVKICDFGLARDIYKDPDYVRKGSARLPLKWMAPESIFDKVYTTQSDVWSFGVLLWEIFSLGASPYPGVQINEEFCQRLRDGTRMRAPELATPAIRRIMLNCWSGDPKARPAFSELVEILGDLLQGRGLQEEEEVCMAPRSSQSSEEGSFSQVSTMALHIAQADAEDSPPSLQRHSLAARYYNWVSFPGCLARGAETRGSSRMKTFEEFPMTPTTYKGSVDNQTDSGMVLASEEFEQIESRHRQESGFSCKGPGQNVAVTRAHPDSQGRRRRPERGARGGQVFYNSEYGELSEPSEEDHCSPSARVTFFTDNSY

Question: How did the inhibition at 0.01 µM ([1]; 10 nM) turn out when `C=CC(=O)Nc1cc(-c2cc(-c3cc4c([nH]3)CCNC4=O)ccn2)ccc1OC(F)(F)F` [compound 11] was run?
Answer: The inhibition at 0.01 µM was -1%.

Question: And the inhibition at 0.1 µM ([1]; 100 nM)?
Answer: The inhibition at 0.1 µM was 5%.

Question: What about the inhibition at 1 µM ([1]; 1000 nM) of the same molecule?
Answer: Its inhibition at 1 µM is 11%.

Question: What about the inhibition at 0.01 µM ([2]; 10 nM) of the same molecule?
Answer: Its inhibition at 0.01 µM is -8%.

Question: What about the inhibition at 0.1 µM ([2]; 100 nM) of the same molecule?
Answer: The inhibition at 0.1 µM was 5%.

Question: What about the inhibition at 1 µM ([2]; 1000 nM) of the same molecule?
Answer: The inhibition at 1 µM was 43%.

Question: And the inhibition at 0.01 µM ([3]; 10 nM)?
Answer: Its inhibition at 0.01 µM is -16%.

Question: And the inhibition at 0.1 µM ([3]; 100 nM)?
Answer: The inhibition at 0.1 µM was -12%.

Question: What about the inhibition at 1 µM ([3]; 1000 nM) of the same molecule?
Answer: Its inhibition at 1 µM is -9%.

Question: What about the inhibition at 0.01 µM ([4]; 10 nM) of the same molecule?
Answer: The inhibition at 0.01 µM was 2%.

Question: And the inhibition at 0.1 µM ([4]; 100 nM)?
Answer: Its inhibition at 0.1 µM is 6%.

Question: What about the inhibition at 1 µM ([4]; 1000 nM) of the same molecule?
Answer: Its inhibition at 1 µM is -3%.

Question: What about the inhibition at 0.01 µM ([5]; 10 nM) of the same molecule?
Answer: Its inhibition at 0.01 µM is -7%.

Question: What about the inhibition at 0.1 µM ([5]; 100 nM) of the same molecule?
Answer: The inhibition at 0.1 µM was 0%.

Question: And the inhibition at 1 µM ([5]; 1000 nM)?
Answer: The inhibition at 1 µM was 6%.

Question: And the inhibition at 0.01 µM ([6]; 10 nM)?
Answer: Its inhibition at 0.01 µM is -6%.

Question: And the inhibition at 0.1 µM ([6]; 100 nM)?
Answer: The inhibition at 0.1 µM was -4%.

Question: What about the inhibition at 1 µM ([6]; 1000 nM) of the same molecule?
Answer: Its inhibition at 1 µM is -1%.

Question: What about the inhibition at 0.01 µM ([7]; 10 nM) of the same molecule?
Answer: Its inhibition at 0.01 µM is 0%.

Question: And the inhibition at 0.1 µM ([7]; 100 nM)?
Answer: Its inhibition at 0.1 µM is 5%.

Question: And the inhibition at 1 µM ([7]; 1000 nM)?
Answer: The inhibition at 1 µM was -2%.

Question: And the inhibition at 0.01 µM ([8]; 10 nM)?
Answer: Its inhibition at 0.01 µM is 0%.

Question: What about the inhibition at 0.1 µM ([8]; 100 nM) of the same molecule?
Answer: The inhibition at 0.1 µM was 7%.

Question: And the inhibition at 1 µM ([8]; 1000 nM)?
Answer: The inhibition at 1 µM was 9%.

Question: And the inhibition at 0.01 µM ([9]; 10 nM)?
Answer: The inhibition at 0.01 µM was -13%.

Question: And the inhibition at 0.1 µM ([9]; 100 nM)?
Answer: The inhibition at 0.1 µM was 15%.

Question: And the inhibition at 1 µM ([9]; 1000 nM)?
Answer: Its inhibition at 1 µM is 67%.
